In the assay the test system is primary rat mixed cortical cells. Nature of the assay: In vitro myelination assay (MBP positive myelin strands, fold myelin pixels above background). As to conditions: Rattus norvegicus; for fold induction at 1 µM: 1.0 μM compound; for fold induction at 10 µM: 10.0 μM compound. Type of assay: cell-based. Put shortly:
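Myelination read as total MBP-immunopositive strand pixels per well, imaged at 10× after fixation on day 14 and expressed relative to untreated wells, at 1.0 and 10.0 μM. Cells: dissociated postnatal day 1 rat cortex, cultured two weeks with compound, re-dosed at days 6 and 10.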

The mark [1] stands for this setting: read-out: Fold myelin pixels above background relative to baseline of no added compound.
Setting [2] is: relative to baseline of no added compound, read-out: Fold myelin pixels above background.
[3] abbreviates: relative to baseline of no added compound, read-out: Fold myelin pixels above background, 1.0 μM.
Setting [4] is: relative to baseline of no added compound, read-out: Fold myelin pixels above background, 10.0 μM.

Where two headings read alike, the source gives them in different places.

On to `[2H]C1([2H])N(C(=O)C2CC2)C([2H])([2H])C([2H])([2H])N(c2cc(C)cc(Nc3ncn(-c4cc(F)cc(F)c4)n3)c2)C1([2H])[2H]` [Compound 961, cyclopropyl-[2,2,3,3,5,5,6,6-octadeuterio-4-[3-[[1-(3,5-difluorophenyl)-1,2,4-triazol-3-yl]amino]-5-methyl-phenyl]piperazin-1-yl]methanone], for which, under setting [1], the fold induction at 1 µM is 1 to 10 and the fold induction at 10 µM is 1 to 10.
With `Cc1cc(Nc2ncn(-c3cc(F)cc(F)c3)n2)cc(N2CC(C(=O)N(C)C)C2)c1` [Compound 711, 1-[3-[[1-(3,5-difluorophenyl)-1,2,4-triazol-3-yl]amino]-5-methyl-phenyl]-N,N-dimethyl-azetidine-3-carboxamide], under setting [2], the fold induction at 1 µM was in the range of 10 to 100 and the fold induction at 10 µM lay in the range of 1 to 10.
With `Fc1ccc(-n2cnc(Nc3cc(C(F)(F)F)cc(N4CCOCC4)n3)n2)cc1F` [Compound 770, N-[1-(3,4-difluorophenyl)-1,2,4-triazol-3-yl]-6-morpholino-4-(trifluoromethyl)pyridin-2-amine], under setting [2], the fold induction at 1 µM fell in the range of 10 to 100 and the fold induction at 10 µM is 10 to 100.
Consider `Cc1cc(Nc2ncn(-c3cc(F)cc(F)c3)n2)cc(N2CCN(CCO)C(C)C2)c1` (stereo not drawn) [Compound 902, 2-[4-[3-[[1-(3,5-difluorophenyl)-1,2,4-triazol-3-yl]amino]-5-methyl-phenyl]-2-methyl-piperazin-1-yl]ethanol], for which, under setting [1], the fold induction at 1 µM was 1 to 10 and the fold induction at 10 µM was at most 1.
Taken in the same sequence, the figures for `Cc1cc(Nc2ncn(-c3cc(F)cc(F)c3)n2)cc(N2CCN(C3CCCN(C)C3)CC2)c1` (stereo not drawn) [Compound 892, 1-(3,5-difluorophenyl)-N-[3-methyl-5-[4-(1-methyl-3-piperidyl)piperazin-1-yl]phenyl]-1,2,4-triazol-3-amine] were 1 to 10 and at most 1.
For `Cc1cc(NCC2CN(CC(C)C)CCO2)cc(Nc2ncn(-c3cc(F)cc(F)c3)n2)c1` (stereo not drawn) [Compound 903, N1-[1-(3,5-difluorophenyl)-1,2,4-triazol-3-yl]-N3-[(4-isobutylmorpholin-2-yl)methyl]-5-methyl-benzene-1,3-diamine], under setting [1], the fold induction at 1 µM lay in the range of 10 to 100 and the fold induction at 10 µM is 1 to 10.
Consider `FC(F)c1cc(Nc2ncn(-c3cnccn3)n2)nc(N2CCN(C3COC3)CC2)c1` [Compound 576, 4-(difluoromethyl)-6-[4-(oxetan-3-yl)piperazin-1-yl]-N-(1-pyrazin-2-yl-1,2,4-triazol-3-yl)pyridin-2-amine], for which, under setting [2], the fold induction at 1 µM is 10 to 100 and the fold induction at 10 µM was in the range of 10 to 100.
Regarding `Cc1cc(Nc2ncn(-c3cc(F)cc(F)c3)n2)cc(N2CCC(N3CC(F)(F)C3)CC2)c1` [Compound 745, N-[3-[4-(3,3-difluoroazetidin-1-yl)-1-piperidyl]-5-methyl-phenyl]-1-(3,5-difluorophenyl)-1,2,4-triazol-3-amine], under setting [2], the fold induction at 1 µM is 10 to 100 and the fold induction at 10 µM was at most 1.
As to `Cc1cc(Nc2ncn(-c3cc(F)cc(F)c3)n2)cc(N2CCC(OCCN3CCCC3)CC2)c1` [Compound 1074, 1-(3,5-difluorophenyl)-N-[3-methyl-5-[4-(2-pyrrolidin-1-ylethoxy)-1-piperidyl]phenyl]-1,2,4-triazol-3-amine], under setting [1], the fold induction at 1 µM lay in the range of 1 to 10 and the fold induction at 10 µM was at most 1.
For `CCc1cc(Nc2ncn(-c3ccc(F)cc3)n2)cc(N2CCN(C3COC3)CC2)c1` [Compound 14, N-[3-ethyl-5-[4-(oxetan-3-yl)piperazin-1-yl]phenyl]-1-(4-fluorophenyl)-1,2,4-triazol-3-amine], the fold induction at 1 µM under setting [3] was 1000 to 10000. For the same molecule, under setting [4], the fold induction at 10 µM is at most 1.
In the case of `Cc1cc(Nc2ncn(-c3ccnc(N4CCCCCC4)c3)n2)cc(N2CCN(C)CC2)c1` [Compound 495, 1-[2-(azepan-1-yl)-4-pyridyl]-N-[3-methyl-5-(4-methylpiperazin-1-yl)phenyl]-1,2,4-triazol-3-amine], the fold induction at 10 µM under setting [2] was at most 1.
In the case of `Cc1cc(Nc2ncn(-c3ccccc3)n2)cc(N2CCC3(CC2)COC3)c1` [Compound 11, N-[3-methyl-5-(2-oxa-7-azaspiro[3.5]nonan-7-yl)phenyl]-1-phenyl-1,2,4-triazol-3-amine], the fold induction at 1 µM under setting [3] lay in the range of 1000 to 10000. Besides, under setting [4], the fold induction at 10 µM lay within 1000 to 10000.
Consider `Cc1cc(Nc2ncn(-c3ccccc3)n2)cc(N2CC(CC(C)C)N3CCC[C@@H]3C2)c1` (stereo partly drawn) [Compound 152, N-[3-[(8aR)-4-isobutyl-3,4,6,7,8,8a-hexahydro-1H-pyrrolo[1,2-a]pyrazin-2-yl]-5-methyl-phenyl]-1-phenyl-1,2,4-triazol-3-amine], for which, under setting [3], the fold induction at 1 µM is at most 1. Further, the fold induction at 10 µM under setting [4] was at most 1.
Consider `Cc1cc(Nc2ncn(-c3cc(F)cc(F)c3)n2)cc(N2CCC(N(C)CCO)CC2)c1` [Compound 1015, 2-[[1-[3-[[1-(3,5-difluorophenyl)-1,2,4-triazol-3-yl]amino]-5-methyl-phenyl]-4-piperidyl]-methyl-amino]ethanol], for which, under setting [1], the fold induction at 1 µM is at most 1 and the fold induction at 10 µM is at most 1.
Regarding `Cc1cc(Nc2ncn(-c3cnccn3)n2)cc(C2(C)CN(C)C(=O)O2)c1` (stereo not drawn) [Compound 846, 3,5-dimethyl-5-[3-methyl-5-[(1-pyrazin-2-yl-1,2,4-triazol-3-yl)amino]phenyl]oxazolidin-2-one], under setting [1], the fold induction at 1 µM was in the range of 10 to 100 and the fold induction at 10 µM is 1 to 10.
For `Cc1cc(Nc2ncn(-c3cc(F)cc(F)c3)n2)cc(N2CCn3ccnc3C2)c1` [Compound 19, 1-(3,5-difluorophenyl)-N-[3-(6,8-dihydro-5H-imidazo[1,2-a]pyrazin-7-yl)-5-methyl-phenyl]-1,2,4-triazol-3-amine], under setting [3], the fold induction at 1 µM was in the range of 10 to 100. For the same molecule, under setting [4], the fold induction at 10 µM fell in the range of 1 to 10.
`Fc1cc(F)cc(-n2cnc(Nc3cc(Cl)cc(N4CCOCC4)c3)n2)c1` [Compound 426, N-(3-chloro-5-morpholino-phenyl)-1-(3,5-difluorophenyl)-1,2,4-triazol-3-amine]: under setting [2], the fold induction at 1 µM lay in the range of 1000 to 10000 and the fold induction at 10 µM lay within 1000 to 10000.
In the case of `Cc1cc(Nc2ncn(-c3cc(F)cc(F)c3)n2)cc(N2CCN3CCOCC3C2)c1` (stereo not drawn) [Compound 566, N-[3-(3,4,6,7,9,9a-hexahydro-1H-pyrazino[2,1-c][1,4]oxazin-8-yl)-5-methyl-phenyl]-1-(3,5-difluorophenyl)-1,2,4-triazol-3-amine], under setting [2], the fold induction at 1 µM is 100 to 1000 and the fold induction at 10 µM was 10 to 100.
In the case of `Cc1cc(-n2cnc(Nc3cc(F)cc(N4CCN(C5COC5)CC4)c3)n2)ccc1F` [Compound 647, 1-(4-fluoro-3-methyl-phenyl)-N-[3-fluoro-5-[4-(oxetan-3-yl)piperazin-1-yl]phenyl]-1,2,4-triazol-3-amine], under setting [2], the fold induction at 1 µM was in the range of 1 to 10 and the fold induction at 10 µM was at most 1.
With `Cc1cc(Nc2ncn(-c3cccc(F)n3)n2)cc(N2CCN(C3COC3)CC2)c1` [Compound 154, 1-(6-fluoro-2-pyridyl)-N-[3-methyl-5-[4-(oxetan-3-yl)piperazin-1-yl]phenyl]-1,2,4-triazol-3-amine], under setting [3], the fold induction at 1 µM fell in the range of 100 to 1000. Under setting [4], the fold induction at 10 µM lay within 100 to 1000.

The record behind these values is patent US10766869B2, “Triazoles for the treatment of demyelinating dieases” (Vertex Pharmaceuticals Incorporated, priority 2015, dated 2020).
